pIC50: −log10 of the molar value.
Molecular target: T1, PASK (Invitrogen) (Homo sapiens, UniProt Q96RG2)
T1 construct: IC50 Kinase Domain; purchased Invitrogen
Experiment: PAS Kinase FRET Assay
Format: biochemical
Conditions: PAS kinase TR-FRET assay (665 nm/615 nm), 2 hours at 25° C.; read-out: IC50 Kinase Domain
Source text: Biochemical Assay for hPASK Activity
The aim of the FRET assay is to determine the inhibition potential of test compounds on targeted kinase. This assay platform provides a homogenous screening method for measuring kinase activity by quantitating the amount of phospho-substrate in solution following a kinase reaction.
In the presence of kinase and ATP, the Ulight-peptide is phosphorylated and captured by an anti-phospho-substrate antibody, which brings the Eu chelate donor and Ulight acceptor dyes into close proximity.
Titration of kinase at 1 mM ATP was achieved via the following protocol. […] The contents of the plate were incubated at RT for 1 h. The reaction was stopped by adding 5 μl of stop solution to each test well followed by mixing and incubation at RT for 10 minutes. 5 μl of detection mix (detection antibody diluted in detection buffer) was added; the contents of the plate were mixed and then incubated in the dark for 1 hour at RT. […] The results were graphed to calculate the EC50.
Titration of ATP at the EC50 concentration of kinase to determine ATP Km,app. was performed using the following method. […] The contents of the plate were and incubated at RT for 1 h. The reaction was stopped by adding 5 μl of stop solution to each test well followed by mixing and incubation at RT for 10 minutes. […] (detection antibody diluted in detection buffer) was added; the contents of the plate were mixed and then incubated in the dark for 1 hour at RT. […] The results were graphed to calculate the EC50 as the ATP Km,app.
Compound screening was done via the following method. 10 mM stock solution of test compound in DMSO was prepared by dissolving test compound in DMSO at RT for 1 hour, and then sonicating at 100% output for 8 minutes. If compound is not soluble under this condition, it was diluted to 3 mM. Kinase reaction buffer was prepared containing 10 mM MgCl2, 50 mM HEPES, 1 mM EGTA, 0.01% TWEEN-20, 2 mM DTT. […] As a positive control, 2.5 μl of positive compound was added to assay wells, and 2.5 μl of DMSO to assay wells as vehicle control. Kinase solution was prepared in reaction buffer at 2× final assay concentration. Kinase solution (5 μl) was added to each well of the assay plate. The substrate and ATP solution was prepared in kinase reaction buffer at 4× final assay concentration. The kinase reaction was started by adding 2.5 μl of substrate+ATP mix solution to each well of the assay plate. The plate is mixed on a plate shaker; then covered and allowed to react for 2 hours in the dark at 25° C. without shaking. The reaction was stopped by adding 5 μl of stop solution to each test well followed by mixing and incubation at RT for 10 minutes in the dark. 5 μl of detection mix (detection antibody diluted in detection buffer) was added; the contents of the plate were mixed and then incubated in the dark for 1 hour at RT.

T1 sequence (Q96RG2 999-1251 limits assumed): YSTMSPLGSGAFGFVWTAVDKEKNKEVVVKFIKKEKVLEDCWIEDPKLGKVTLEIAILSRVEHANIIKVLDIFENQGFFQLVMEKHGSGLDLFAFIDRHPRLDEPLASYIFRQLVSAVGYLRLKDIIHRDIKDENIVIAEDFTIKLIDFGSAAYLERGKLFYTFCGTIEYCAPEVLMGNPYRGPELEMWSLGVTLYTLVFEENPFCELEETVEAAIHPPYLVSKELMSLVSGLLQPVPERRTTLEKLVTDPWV

pIC50, > 5.00:
CN(CC(F)(F)F)c1nc2cc(C(=O)O)ccc2nc1-c1ccc(F)cc1 [Example 124, 2-(4-Fluorophenyl)-3-[methyl(2,2,2-trifluoroethyl)amino]quinoxaline-6-carboxylic acid]
CN(c1nc2cc(C(=O)O)ccc2nc1-c1ccc(F)cc1)[C@H]1CC[C@H](O)CC1 [Example 125, 2-(4-Fluorophenyl)-3-(((1r,4r)-4-hydroxycyclohexyl)(methyl)amino)quinoxaline-6-carboxylic acid]
CC(C)N(C)c1nc2cc(C(=O)O)ccc2nc1-c1ccc(N)nc1 [Example 16, 2-(6-Aminopyridin-3-yl)-3-(isopropyl(methyl)amino)quinoxaline-6-carboxylic acid]
CC(C)N(C)c1nc2cc(C(=O)O)ccc2nc1-c1ccc2oncc2c1 [Example 50, 2-(1,2-Benzoxazol-5-yl)-3-[methyl(propan-2-yl)amino]quinoxaline-6-carboxylic acid]
O=C(O)c1ccc2nc(-c3ccc(F)cc3)c(N3CCC[C@@H]3C(F)(F)F)nc2c1 [Example 101, (R)-2-(4-Fluorophenyl)-3-(2-(trifluoromethyl)pyrrolidin-1-yl)quinoxaline-6-carboxylic acid]
CC(=O)N[C@H]1CC[C@H](N(C)c2nc3cc(C(=O)O)ccc3nc2-c2ccc(F)cc2)CC1 [Example 127, 3-(((1r,4r)-4-Acetamidocyclohexyl)(methyl)amino)-2-(4-fluorophenyl)quinoxaline-6-carboxylic acid]
C[C@H]1CCCN1c1nc2cc(C(=O)O)ccc2nc1-c1ccc2[nH]ccc2c1 [Example 40, (S)-2-(1H-Indol-5-yl)-3-(2-methylpyrrolidin-1-yl)quinoxaline-6-carboxylic acid]
C[C@H]1CCCN1c1nc2cc(C(=O)O)ccc2nc1-c1ccc2[nH]ncc2c1 [Example 47, 2-(1H-Indazol-5-yl)-3-[(2S)-2-methylpyrrolidin-1-yl]quinoxaline-6-carboxylic acid]
O=C(O)c1ccc2nc(-c3ccc(F)cc3)c(N3CCC3)nc2c1 [Example 145, 3-(Azetidin-1-yl)-2-(4-fluorophenyl)quinoxaline-6-carboxylic acid]
C[C@H]1CCCN1c1nc2cc(C(=O)O)ccc2nc1-c1ccc2[nH]nnc2c1 [Example 96, (S)-2-(1H-Benzo[d][1,2,3]triazol-5-yl)-3-(2-methylpyrrolidin-1-yl)quinoxaline-6-carboxylic acid]
Cc1cc2cc(-c3nc4ccc(C(=O)O)cc4nc3N3CCN(c4ccccn4)C[C@@H]3C)ccc2[nH]1 [Example 99, (S)-2-(2-Methyl-1H-indol-5-yl)-3-(2-methyl-4-(pyridin-2-yl)piperazin-1-yl)quinoxaline-6-carboxylic acid]
CC(C)N(C)c1nc2cc(C(=O)O)ccc2nc1-c1cc2ccc(Cl)cc2o1 [Example 31, 2-(6-Chloro-1-benzofuran-2-yl)-3-[methyl(propan-2-yl)amino]quinoxaline-6-carboxylic acid]
O=C(O)c1ccc2nc(-c3cc4ccccc4s3)c(N3CCCCC3)nc2c1 [Example 53, 2-(Benzo[b]thiophen-2-yl)-3-(piperidin-1-yl)quinoxaline-6-carboxylic acid]
CC(C)N(C)c1nc2cc(C(=O)O)ccc2nc1-c1cncc(Br)c1 [Example 7, 2-(5-Bromopyridin-3-yl)-3-(isopropyl(methyl)amino)quinoxaline-6-carboxylic acid]
C[C@@H](c1ccccc1)N(C)c1nc2cc(C(=O)O)ccc2nc1-c1ccc2[nH]ncc2c1 [Example 98, (S)-2-(1H-Indazol-5-yl)-3-(methyl(1-phenylethyl)amino)quinoxaline-6-carboxylic acid]
O=C(O)c1ccc2nc(-c3ccc(F)cc3)c(N3CCN(C(=O)c4ccccc4)CC3)nc2c1 [Example 129, 3-(4-Benzoylpiperazin-1-yl)-2-(4-fluorophenyl)quinoxaline-6-carboxylic acid]
C[C@H]1CCCN1c1nc2cc(C(=O)O)ccc2nc1-c1cc2ccc(F)cc2o1 [Example 32, (S)-2-(6-Fluorobenzofuran-2-yl)-3-(2-methylpyrrolidin-1-yl)quinoxaline-6-carboxylic acid]
C[C@H]1CCCN1c1nc2cc(C(=O)O)ccc2nc1-c1ccoc1 [Example 78, 2-(Furan-3-yl)-3-[(2S)-2-methylpyrrolidin-1-yl]quinoxaline-6-carboxylic acid]
Cc1cc(F)ccc1-c1nc2ccc(C(=O)O)cc2nc1N1CCC[C@@H]1C [Example 117, (S)-2-(4-Fluoro-2-methylphenyl)-3-(2-methylpyrrolidin-1-yl)quinoxaline-6-carboxylic acid]
CCCN(CC)c1nc2cc(C(=O)O)ccc2nc1-c1ccc(F)cc1 [Example 139, 3-[Ethyl(propyl)amino]-2-(4-fluorophenyl)quinoxaline-6-carboxylic acid]
O=C(O)c1ccc2nc(-c3ccc4[nH]ncc4c3)c(N3CCCCC3)nc2c1 [Example 35, 2-(1H-Indazol-5-yl)-3-(piperidin-1-yl)quinoxaline-6-carboxylic acid]
CN(c1nc2cc(C(=O)O)ccc2nc1-c1ccc2[nH]ncc2c1)C1CC1 [Example 29, 3-(Cyclopropyl(methyl)amino)-2-(1H-indazol-5-yl)quinoxaline-6-carboxylic acid]
CC(C)N(C)c1nc2cc(C(=O)O)ccc2nc1-c1ccc2nccnc2c1 [Example 60, 3-(isopropyl(methyl)amino)-2,7′-biquinoxaline-6-carboxylic acid]
COC[C@H]1CCCN1c1nc2cc(C(=O)O)ccc2nc1-c1ccc2[nH]ccc2c1 [Example 67, 2-(1H-Indol-5-yl)-3-[(2R)-2-(methoxymethyl)pyrrolidin-1-yl]quinoxaline-6-carboxylic acid]
CC(C)N(C)c1nc2cc(C(=O)O)ccc2nc1-c1cc2cc(F)c(F)cc2o1 [Example 33, 2-(5,6-Difluorobenzofuran-2-yl)-3-(isopropyl(methyl)amino)quinoxaline-6-carboxylic acid]
CC(C)N(C)c1nc2cc(C(=O)O)ccc2nc1-c1ccc2scnc2c1 [Example 56, 2-(Benzo[d]thiazol-5-yl)-3-(isopropyl(methyl)amino)quinoxaline-6-carboxylic acid]
CC(C)N(C)c1nc2cc(C(=O)O)ccc2nc1-c1ccc2occc2c1 [Example 30, 2-(1-Benzofuran-5-yl)-3-[methyl(propan-2-yl)amino]quinoxaline-6-carboxylic acid]
CC(C)N(C)c1nc2cc(C(=O)O)ccc2nc1-c1c[nH]nc1C(F)(F)F [Example 9, 3-(Isopropyl(methyl)amino)-2-(3-(trifluoromethyl)-1H-pyrazol-4-yl)quinoxaline-6-carboxylic acid]
COc1ccc2oc(-c3nc4ccc(C(=O)O)cc4nc3N(C)C(C)C)cc2c1 [Example 17, 3-(Isopropyl(methyl)amino)-2-(5-methoxybenzofuran-2-yl)quinoxaline-6-carboxylic acid]
CC(C)N(C)c1nc2cc(C(=O)O)ccc2nc1-c1ccc2[nH]ncc2c1 [Example 8, 2-(1H-Indazol-5-yl)-3-(isopropyl(methyl)amino)quinoxaline-6-carboxylic acid]

Reference: patent US8912188B2, “Substituted quinoxaline carboxylic acids for the inhibition of PASK” (BioEnergenix, LLC, priority 2011, dated 2014)
